Tests used:
[1] = tested on: cortical neurons; assay: Intracellular ROS by DCFD fluorescence in cortical neurons; format: cell-based, mice; conditions: folate deprivation for two hours
Protocol: Intracellular reactive oxygen species (ROS) were monitored as described in […] et al., 1999 (J. Biol. Chem., 274:30322-30327). Briefly, cells were incubated for 30 minutes with dichloro-fluorescein diacetate (DCFD; acetoxymethyl ester; Molecular Probes, Inc., Eugene, Oreg.), which is used to detect intracellular peroxide levels. Incubation was followed by rinsing of cultures in serum-free medium and immediate capture of images using UV optics. Images were captured under epifluorescent and phase-contrast illumination using a DAGE CCL-72 cooled CCD camera via a Scion LG-3 frame grabber operated by NIH Image (see the Internet at rsb.info.nih.gov/nih-image). Images were then stored as PICT files on a Macintosh Power PC 7100AV for subsequent analysis. At least 100 cells in randomly-selected fields from duplicate cultures derived from multiple experiments were scored for fluorescent intensity using NIH Image analysis software. Representative background areas devoid of cells were similarly analyzed and subtracted from cell values to yield net densitometric values. All fields for each individual assay were illuminated, captured, and processed under identical settings. Corresponding phase-contrast images were obtained. Cell aggregates were excluded from the assays; only individual cells were quantified. Values were exported to Excel for statistical analyses using Student's t test. […]

[2] = tested on: SH-SY-5Y cells; assay: HPLC analysis of glutathione and thiols in SH-SY-5Y cells; format: cell-based, human
Protocol: Glutathione levels were quantified in homogenates of SH-SY-5Y cells. Cultures were rinsed twice with Tris-buffered saline (TBS), scraped from the plate in a small volume of TBS and homogenized on ice. Medium was also utilized for analysis of HCY along with cellular lysates, since HCY is normally exported from cells. Homogenates (100 μl) were reduced by mixing with 50 μl of 100 μM N-acetylcysteine or with 30 μl of 30 μM cystamine (as an internal standard) and 10 μl of tri-carboxyethylphosphine (100 mg/ml in 0.05 M HCl). Samples were vortexed, incubated at room temperature for 30 minutes, then centrifuged at 10,000×g for 10 minutes. 80 μl of the resulting supernatant were combined with 160 μl of 2 M boric acid/4 mM EDTA (pH 10.5), followed by 80 μl of 1.0 mg/ml SBDF [7-fluorobenzo-2-oxa-1,3-diazole-4-sulfonate] in boric acid/EDTA buffer). Samples were mixed, incubated for 60 minutes at 60° C., equilibrated to reach temperature, and 50 μl of the sample was then injected into a Hewlett Packard model 1090 HPLC, which is used with a 1046A fluorescence detector and a Hewlett Packard 4.6×60 mm high-speed analytical column packed with 3 μM ODs (C18) Hypersil silica. The mobile phase consisted of methanol/0.2 M acetate buffer pH 4.0 (2/98 by volume). Glutathione concentrations were then determined by comparison of peak area ratios of glutathione to the internal standard N-acetylcysteine in the sample compared to peak areas obtained for a glutathione standard curve. Samples were derived from 3-4 normal and 3-4 ApoE−/− mice for each dietary condition, from ≧2 independent experiments (total n≧6 for each diet for both experiments).
NAC directly scavenges ROS and also provide a source of intracellular cysteine for synthesis of glutathione during conditions of oxidative stress. […] Differentiated SH-SY-5Y cells with and without NAC treatment were subjected to HPLC along with 50 μM each of multiple thiol standards (“Standards”) as indicated in FIGS. 18A to 18C.

[3] = tested on: SH-SY-5Y human neuroblastoma cells; assay: PHF-1 immunoreactivity (phospho-tau) in differentiated SH-SY-5Y cells with or without folate; format: cell-based
Protocol: Cultured cells were used to test individual agents and formulations. […] For immunocytochemistry to detect paired helical filament-1 (PHF-1) staining (as an index of tau phosphorylation), cells were fixed for 15 minutes with 4% paraformaldehyde in 0.1 M phosphate buffer and immunostained by sequential reaction with a mouse monoclonal PHF-1 antibody that was raised against tau from paired helical filaments isolated from the brains of Alzheimer disease patients. Incubation with PHF-1 antibody was followed by rhodamine conjugated goat anti-mouse IgG and visualization using methods known in the art. […] Cortical neurons were prepared from 12 day embryonic C57/B16 day old mice using known methods. Both the SH-SY-5Y cultures and the cortical neurons were processed for PHF-1 (paired helical filament 1) immunofluorescence using known methods ([…] et al., 1999 supra). Control cells cultured in the continued presence of normal folate levels were also processed. Phospho-tau was also examined using immunoblot analysis. […] The homogenates were sedimented at 13,000×g for 15 minutes and the resulting supernatant was electrophoresed, blotted, and the blot stained for PHF-1 using known methods.

[4] = Snowdon et al., 2000; cited from earlier work
[5] = folate deprivation for 24 hours

Nc1nc2ncc(CNc3ccc(C(=O)N[C@@H](CCC(=O)O)C(=O)O)cc3)nc2c(=O)[nH]1 [folate, folic acid]
ROS [1]: increased reactive oxygen species (ROS) | total glutathione levels ([2]; brief (two hour) folate deprivation): no significant change | depletion of total glutathione levels [2, 5]: approximately 45% | oxidized glutathione ([2]; in the presence of folate): 4% | oxidized glutathione ([2]; two hours of folate deprivation): 46% | PHF-1 (phospho-tau) Mean ± SEM ([3]; +Folate 4 hr): 40.3 ± 3.9 | % increase in phospho-tau compared to control ([3]; +Folate 24 hr): −5.5% | PHF-1 (phospho-tau) Mean ± SEM ([3]; +Folate 24 hr): 38.1 ± 3.1 | PHF-1 levels after cultures received medium containing folate ([3]; after folate deprivation for 24 hours): returned to control levels within four hours | average increase in PHF-1 immunofluorescence ([3]; folate deficiency, two hours): 3.5 fold | average increase in phospho-tau [3, 5]: 29% | accumulation of phospho-tau after restoration of folate ([3]; following folate deprivation): reversed within two hours | total tau levels (monoclonal antibody 5E2) ([3]; two hour deprivation of folate): not altered | % increase in phospho-tau compared to control ([3]; −Folate 4 hr): 29% | PHF-1 (phospho-tau) Mean ± SEM ([3]; −Folate 4 hr): 52.0 ± 3.4 | % increase in phospho-tau compared to control ([3]; −Folate 24 hr): −1.5% | PHF-1 (phospho-tau) Mean ± SEM ([3]; −Folate 24 hr): 39.7 ± 2.6 | concentration in spinal fluid versus plasma [4]: concentrated four-fold within spinal fluid over that observed within plasma

Source: US8173618B2, “Formulations for reducing neuronal degeneration” (University of Massachusetts, priority 2003, dated 2012)
